Laboratory results reported in publication PMC6886544.

Assays:
EGFR-L861Q = EGFR-L861Q (Homo sapiens, UniProt P00533, L861Q); assay: SelectScreen kinase profiling, EGFR-L861Q; format: biochemical; details: mean ± SD of one measurement in duplicates
Method: (§1) Kinase profiling of compound 17a at a concentration of 1 µM generated with the SelectScreen® Profiling Service from Life Technologies.
(§2) Figure S2. Kinase profiling of compound 17a, Illustration as waterfall plot. 9 Kinases harboring a Cysteine isostructural to Cys797 in EGFR are highlighted
(§3) Kinase % inhibition Kinase % inhibition […]
(§4) aValues are the mean ± SD of one measurement in duplicates; bKinases harboring a Cysteine isostructural to Cys797 […]
(§5) (1 picture or pasted object on this page, not shown here)

ABL1-E255K = ABL1-E255K (Homo sapiens, UniProt P00519, E255K); assay: SelectScreen kinase profiling, ABL1-E255K; format: biochemical; details: mean ± SD of one measurement in duplicates
Method: as §1, §2, §3, §4, §5

SRC = SRC (Homo sapiens, UniProt P12931); assay: SelectScreen kinase profiling, SRC; format: biochemical; details: mean ± SD of one measurement in duplicates
Method: as §1, §2, §3, §4, §5

EGFR-L858R [1] = biological target: T1, EGFR-L858R (Homo sapiens, UniProt P00533, L858R); assay: SelectScreen kinase profiling, EGFR-L858R; format: biochemical; details: mean ± SD of one measurement in duplicates
Method: as §1, §2, §3, §4, §5

EGFR-T790M/L858R = EGFR-T790M/L858R (Homo sapiens, UniProt P00533, L858R/T790M); assay: SelectScreen kinase profiling, EGFR-T790M/L858R; format: biochemical; details: mean ± SD of one measurement in duplicates
Method: as §1, §2, §3, §4, §5

EPHB2 = EPHB2 (Homo sapiens, UniProt P29323); assay: SelectScreen kinase profiling, EPHB2; format: biochemical; details: mean ± SD of one measurement in duplicates
Method: as §1, §2, §3, §4, §5

EGFR-T790M = EGFR-T790M (Homo sapiens, UniProt P00533, T790M); assay: SelectScreen kinase profiling, EGFR-T790M; format: biochemical; details: mean ± SD of one measurement in duplicates
Method: as §1, §2, §3, §4, §5

ABL1-wt = ABL1-wt (Homo sapiens, UniProt P00519); assay: SelectScreen kinase profiling, ABL1-wt; format: biochemical; details: mean ± SD of one measurement in duplicates
Method: as §1, §2, §3, §4, §5

[2] = Plasma protein binding, mouse; format: in vitro ADME; details: equilibrium dialysis, 37 °C
Method: Assessment of plasma protein binding was measured by equilibrium dialysis by incubating plasma
based determination of final compound concentrations. […]

EGFR-L858R [3] = biological target: T1, EGFR-L858R; assay: Kinetic characterization (Ki, kinact), EGFR-L858R
[4] = PAMPA (parallel artificial membrane permeability assay); format: in vitro ADME; details: pH 7.4, 500 µM, 16 hours
Method: masses and 0.02 Da for fragment ions. FDR was adjusted to 1% on peptide spectrum match […]
Microsomal stability (phase I) assay.
Metabolic stability under oxidative conditions was measured in liver microsomes from different species by LC/MS-based measuring of depletion of compound at a concentration of 3 µM over time up to 50 minutes (HLM) or 60 minutes (MLM) at 37 °C. Based on the compound half-life t1/2, the in vitro intrinsic clearance CLint was calculated.
Plasma stability was measured by LC/MS-based determination of the percentage of remaining compounds at a concentration of 5 µM after incubation in plasma obtained from different species […]
Assessment of plasma protein binding was measured by equilibrium dialysis by incubating plasma with the compound of interest at a concentration of 5 µM for 6 h at 37 °C followed by LC/MS-based determination of final compound concentrations.
PAMPA (Parallel artificial membrane permeability assay). […]
temperature in a wet chamber, the optical density of the solution in the receiver well was measured between 250 and 500 nm in intervals of 10 nm. The percent flux was calculated from […]

EGFR-wt = EGFR-wt (Homo sapiens, UniProt P00533); assay: Kinetic characterization (Ki, kinact), EGFR-wt
Sequence of EGFR-wt (P00533 25-1210): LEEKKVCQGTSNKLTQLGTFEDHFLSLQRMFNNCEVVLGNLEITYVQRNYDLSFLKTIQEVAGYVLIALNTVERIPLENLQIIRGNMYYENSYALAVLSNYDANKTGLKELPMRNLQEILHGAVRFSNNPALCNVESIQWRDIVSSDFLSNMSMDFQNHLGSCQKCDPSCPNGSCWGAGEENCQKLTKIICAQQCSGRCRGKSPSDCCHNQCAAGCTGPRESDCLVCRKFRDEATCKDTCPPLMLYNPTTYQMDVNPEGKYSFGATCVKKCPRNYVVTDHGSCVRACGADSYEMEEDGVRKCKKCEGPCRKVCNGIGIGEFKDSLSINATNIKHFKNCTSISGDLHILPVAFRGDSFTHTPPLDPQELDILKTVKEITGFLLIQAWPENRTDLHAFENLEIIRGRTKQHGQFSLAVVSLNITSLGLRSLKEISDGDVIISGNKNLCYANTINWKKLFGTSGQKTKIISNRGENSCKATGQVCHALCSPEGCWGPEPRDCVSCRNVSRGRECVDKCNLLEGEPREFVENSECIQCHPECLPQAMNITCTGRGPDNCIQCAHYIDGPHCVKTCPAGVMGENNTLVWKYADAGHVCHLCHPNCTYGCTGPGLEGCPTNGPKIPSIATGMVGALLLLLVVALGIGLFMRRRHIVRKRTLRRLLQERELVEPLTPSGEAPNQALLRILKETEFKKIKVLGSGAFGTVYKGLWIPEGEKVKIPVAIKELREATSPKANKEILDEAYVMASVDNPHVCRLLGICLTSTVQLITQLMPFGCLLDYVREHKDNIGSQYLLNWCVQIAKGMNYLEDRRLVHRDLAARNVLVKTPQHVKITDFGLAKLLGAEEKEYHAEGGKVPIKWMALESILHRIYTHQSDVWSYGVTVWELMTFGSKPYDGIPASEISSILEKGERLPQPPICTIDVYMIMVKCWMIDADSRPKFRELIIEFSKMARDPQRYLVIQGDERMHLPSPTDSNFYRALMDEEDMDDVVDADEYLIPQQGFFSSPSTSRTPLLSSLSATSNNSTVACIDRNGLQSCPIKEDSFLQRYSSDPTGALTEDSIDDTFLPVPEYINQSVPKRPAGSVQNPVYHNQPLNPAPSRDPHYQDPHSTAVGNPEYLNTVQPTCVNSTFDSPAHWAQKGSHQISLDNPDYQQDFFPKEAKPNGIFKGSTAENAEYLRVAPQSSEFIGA

T1 sequence (P00533 25-1210 L858R): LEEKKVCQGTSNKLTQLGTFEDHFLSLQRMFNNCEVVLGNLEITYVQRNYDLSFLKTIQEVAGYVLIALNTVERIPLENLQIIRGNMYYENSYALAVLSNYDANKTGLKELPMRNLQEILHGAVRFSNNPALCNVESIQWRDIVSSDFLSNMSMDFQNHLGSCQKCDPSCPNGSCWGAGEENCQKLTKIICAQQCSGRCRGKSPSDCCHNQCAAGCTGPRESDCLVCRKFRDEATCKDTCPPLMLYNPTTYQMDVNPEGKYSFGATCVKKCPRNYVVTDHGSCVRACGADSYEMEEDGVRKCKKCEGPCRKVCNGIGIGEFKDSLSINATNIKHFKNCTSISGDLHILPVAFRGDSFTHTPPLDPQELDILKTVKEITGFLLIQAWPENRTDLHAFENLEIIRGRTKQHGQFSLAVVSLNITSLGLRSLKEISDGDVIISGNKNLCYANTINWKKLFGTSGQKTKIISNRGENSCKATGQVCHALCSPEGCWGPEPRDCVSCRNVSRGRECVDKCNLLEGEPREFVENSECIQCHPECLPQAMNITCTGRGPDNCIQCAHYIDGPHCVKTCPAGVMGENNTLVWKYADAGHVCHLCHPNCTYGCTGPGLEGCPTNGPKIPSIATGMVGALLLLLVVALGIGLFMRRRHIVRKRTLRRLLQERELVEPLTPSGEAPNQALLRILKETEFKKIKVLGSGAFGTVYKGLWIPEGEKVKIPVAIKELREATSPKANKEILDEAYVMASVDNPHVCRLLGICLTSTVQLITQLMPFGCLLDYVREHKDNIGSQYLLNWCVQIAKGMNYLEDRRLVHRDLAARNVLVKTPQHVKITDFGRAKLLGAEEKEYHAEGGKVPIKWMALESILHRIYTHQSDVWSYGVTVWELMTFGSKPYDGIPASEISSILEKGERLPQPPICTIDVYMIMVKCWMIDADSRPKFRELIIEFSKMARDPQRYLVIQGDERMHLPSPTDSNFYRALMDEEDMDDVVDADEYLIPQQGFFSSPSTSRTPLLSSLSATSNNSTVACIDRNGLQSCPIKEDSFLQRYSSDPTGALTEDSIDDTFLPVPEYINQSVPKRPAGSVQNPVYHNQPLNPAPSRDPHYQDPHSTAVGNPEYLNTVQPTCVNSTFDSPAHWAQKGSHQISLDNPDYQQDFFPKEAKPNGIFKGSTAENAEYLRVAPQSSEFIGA
Sequence of ABL1-wt (P00519 whole entry): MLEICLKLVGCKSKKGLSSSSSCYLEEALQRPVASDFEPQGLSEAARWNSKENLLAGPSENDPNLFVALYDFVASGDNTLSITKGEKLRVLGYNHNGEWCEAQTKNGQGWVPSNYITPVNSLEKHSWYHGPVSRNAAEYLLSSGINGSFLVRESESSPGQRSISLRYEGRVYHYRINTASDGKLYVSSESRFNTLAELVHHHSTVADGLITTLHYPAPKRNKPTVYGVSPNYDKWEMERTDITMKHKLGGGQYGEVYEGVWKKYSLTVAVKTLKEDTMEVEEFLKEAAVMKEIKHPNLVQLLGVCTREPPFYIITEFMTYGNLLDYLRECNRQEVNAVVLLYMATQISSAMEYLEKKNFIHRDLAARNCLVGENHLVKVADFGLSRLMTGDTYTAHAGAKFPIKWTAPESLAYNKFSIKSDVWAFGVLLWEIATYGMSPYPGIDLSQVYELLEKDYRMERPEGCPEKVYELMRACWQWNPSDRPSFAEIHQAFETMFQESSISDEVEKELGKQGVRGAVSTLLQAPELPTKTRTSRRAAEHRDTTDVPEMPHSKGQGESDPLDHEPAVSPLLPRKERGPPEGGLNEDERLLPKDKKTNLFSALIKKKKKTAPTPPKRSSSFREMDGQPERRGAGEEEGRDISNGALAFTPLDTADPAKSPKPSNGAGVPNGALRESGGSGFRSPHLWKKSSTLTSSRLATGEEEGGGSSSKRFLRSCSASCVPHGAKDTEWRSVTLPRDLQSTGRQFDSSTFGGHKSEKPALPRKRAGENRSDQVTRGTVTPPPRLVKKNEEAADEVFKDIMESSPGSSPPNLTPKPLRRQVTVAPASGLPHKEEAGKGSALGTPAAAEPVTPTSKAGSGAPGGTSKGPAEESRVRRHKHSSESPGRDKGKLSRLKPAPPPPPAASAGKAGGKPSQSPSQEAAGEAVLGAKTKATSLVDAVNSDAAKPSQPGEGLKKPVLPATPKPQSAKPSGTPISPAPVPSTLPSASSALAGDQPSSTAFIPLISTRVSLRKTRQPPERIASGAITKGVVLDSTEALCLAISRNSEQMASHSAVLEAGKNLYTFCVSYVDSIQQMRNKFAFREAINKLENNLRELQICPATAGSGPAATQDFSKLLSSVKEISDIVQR
Sequence of EGFR-L861Q (P00533 668-1210 L861Q limits assumed): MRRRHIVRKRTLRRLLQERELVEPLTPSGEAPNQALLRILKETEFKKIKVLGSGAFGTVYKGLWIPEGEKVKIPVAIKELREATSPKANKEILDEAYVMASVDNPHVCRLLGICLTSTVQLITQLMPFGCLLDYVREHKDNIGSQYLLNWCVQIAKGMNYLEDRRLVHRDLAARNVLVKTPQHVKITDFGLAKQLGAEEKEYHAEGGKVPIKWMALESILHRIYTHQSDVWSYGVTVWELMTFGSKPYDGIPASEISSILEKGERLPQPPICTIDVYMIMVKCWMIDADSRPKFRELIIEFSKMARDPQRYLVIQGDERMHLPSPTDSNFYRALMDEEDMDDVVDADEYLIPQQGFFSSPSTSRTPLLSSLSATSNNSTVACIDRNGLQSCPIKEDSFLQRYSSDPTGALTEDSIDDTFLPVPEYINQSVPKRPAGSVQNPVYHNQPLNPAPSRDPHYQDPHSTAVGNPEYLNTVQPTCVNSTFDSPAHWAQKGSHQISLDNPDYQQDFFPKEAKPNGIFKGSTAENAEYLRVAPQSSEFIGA
Sequence of EPHB2 (P29323 19-1055): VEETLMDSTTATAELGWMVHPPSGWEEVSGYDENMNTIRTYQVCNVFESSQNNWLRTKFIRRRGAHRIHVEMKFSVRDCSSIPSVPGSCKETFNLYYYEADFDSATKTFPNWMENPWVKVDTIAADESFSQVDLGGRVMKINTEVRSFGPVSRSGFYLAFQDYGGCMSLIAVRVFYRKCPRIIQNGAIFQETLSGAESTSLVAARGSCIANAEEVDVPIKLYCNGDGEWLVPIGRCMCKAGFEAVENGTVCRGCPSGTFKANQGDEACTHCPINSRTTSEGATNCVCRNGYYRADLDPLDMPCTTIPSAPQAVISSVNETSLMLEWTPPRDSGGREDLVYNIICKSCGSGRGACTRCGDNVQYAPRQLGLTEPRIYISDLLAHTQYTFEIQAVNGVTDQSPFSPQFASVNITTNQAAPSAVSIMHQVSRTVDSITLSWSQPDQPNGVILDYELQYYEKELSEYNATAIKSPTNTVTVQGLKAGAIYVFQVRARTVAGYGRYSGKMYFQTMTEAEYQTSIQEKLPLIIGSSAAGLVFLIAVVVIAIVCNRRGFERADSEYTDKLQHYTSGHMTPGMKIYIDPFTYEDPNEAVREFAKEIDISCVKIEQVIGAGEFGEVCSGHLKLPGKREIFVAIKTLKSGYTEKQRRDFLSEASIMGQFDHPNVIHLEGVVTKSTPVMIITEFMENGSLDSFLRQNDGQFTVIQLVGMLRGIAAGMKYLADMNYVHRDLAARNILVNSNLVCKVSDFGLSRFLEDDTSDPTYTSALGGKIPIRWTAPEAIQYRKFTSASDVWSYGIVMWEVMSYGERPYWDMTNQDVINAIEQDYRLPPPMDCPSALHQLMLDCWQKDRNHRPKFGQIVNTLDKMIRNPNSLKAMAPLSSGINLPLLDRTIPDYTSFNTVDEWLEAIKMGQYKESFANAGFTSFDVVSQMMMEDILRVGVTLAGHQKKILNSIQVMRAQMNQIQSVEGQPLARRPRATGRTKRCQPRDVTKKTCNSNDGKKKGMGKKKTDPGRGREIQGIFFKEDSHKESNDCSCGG
Sequence of ABL1-E255K (P00519 whole entry E255K): as the sequence (P00519 whole entry) above, with E255K counted along it

inhibition at 1 µM (EGFR-L861Q) [%]	inhibition at 1 µM (ABL1-E255K) [%]	inhibition at 1 µM (SRC) [%]	inhibition at 1 µM (EGFR-L858R [1]) [%]	inhibition at 1 µM (EGFR-T790M/L858R) [%]	inhibition at 1 µM (EPHB2) [%]	inhibition at 1 µM (EGFR-T790M) [%]	inhibition at 1 µM (ABL1-wt) [%]	fraction unbound at 6 h, 5 µM [2]	Ki (EGFR-L858R [3]) [nM]	kinact (EGFR-L858R [3]) [s⁻¹]	kinact/KI (EGFR-L858R [3]) [M⁻¹ s⁻¹]	PAMPA flux [4] [%]	Ki (EGFR-wt) [nM]	kinact (EGFR-wt) [s⁻¹]	kinact/KI (EGFR-wt) [M⁻¹ s⁻¹]	Compound
96 ± 2	86	81 ± 1	89 ± 6	88 ± 1	72 ± 3	89 ± 2	89									C=CC(=O)Nc1cccc(-c2c(-c3ccc(CN4CCN(C)CC4)cc3)[nH]c3ncnc(OC)c23)c1 [Compound 17a]
								0.003	0.5 ± 0.1	0.00467	8.78e+06 ± 650000	88	0.4 ± 0.1	0.000833	1.98e+06 ± 220000	C=CC(=O)Nc1cccc(-c2c(-c3ccc(N4CCN(C)CC4)cc3)[nH]c3ncnc(OCC(C)C)c23)c1 [Compound 19h]
